Measurements: patent US10793559B2, “Chemical compounds” (GlaxoSmithKline Intellectual Property Development Limited, priority 2016, dated 2020)
Values joined by “and” are separate entries in the source; they are usually repeats but may differ in a detail not shown here. Equal entries are not always repeated. Structures can show the parent of a compound that is named as a salt.

Target: PI3K-Delta (Homo sapiens, UniProt O00329)
Assay: PI3K HTRF assay (PI3K Delta)
Type: biochemical
Settings: PI3K-Delta 1.5 nM, 80 μM ATP, 10 μM PIP2 final, read-out: mean pIC50 in the PI3K Delta assay (converted)
Protocol: Biological Data PI3K HTRF Assay
The binding of compounds to PI3K-alpha/beta/delta/gamma is determined by homogeneous time resolved fluorescence (HTRF) assays as follows;
Briefly, solid compound is dissolved in 100% DMSO at a concentration of 2 mM. Dilutions are prepared in 100% DMSO using a 1 in 4 serial step dilution. The dilutions are transferred to black low volume Greiner assay plates ensuring that the DMSO concentration is constant across the plate at 1% (0.1 ul/well).
PI3K Reaction Buffer (contains 50 mM HEPES pH7.0 (NaOH), 150 mM NaCl, 10 mM MgCl2, 2.3 mM sodium cholate, 10 μM CHAPS made up in milliQ water). Fresh DTT is added at a final concentration of 1 mM on the day of use. Wortmannin at a concentration sufficient to produce 100% inhibition (8.33e-6 M) is added to column 18 of compound plates.
Enzyme solutions: 1× PI3K assay Buffer containing: • 550 pM PI3K-Alpha enzyme (275 pM final assay concentration) • 800 pM PI3K-Beta enzyme (400 pM final assay concentration) • 3 nM PI3K-Delta enzyme (1.5 nM final assay concentration) • 10 nM PI3K-Gamma enzyme (5 nM final assay concentration)
These concentrations are optimal to achieve a signal:background of between 1.5-4.5. The enzyme solution is added to columns 1-24 (3 ul/well) and plates are incubated for 15 minutes at room temperature.
Substrate solution: 1× PI3K assay buffer containing: • PI3K-Alpha: 500 μM ATP, 20 μM PIP2 and 120 nM biotin-PIP3. (Final assay concentrations are 250 μM ATP, 10 μM PIP2 (both at Km) and 40 nM biotin-PIP3) • PI3K-Beta: 800 μM ATP, 20 μM PIP2 and 120 nM biotin-PIP3. (Final assay concentrations are 400 μM ATP, 10 μM PIP2 (both at Km) and 40 nM biotin-PIP3) • PI3K-Delta: […], 20 μM PIP2 and 120 nM biotin-PIP3. (Final assay concentrations are 80 μM ATP, 10 μM PIP2 (both at Km) and 40 nM biotin-PIP3) • PI3K-Gamma: 30 μM ATP, 20 μM PIP2 and 120 nM biotin-PIP3.
This is added to all wells and plates are incubated for 1 hour at room temperature.
Detection solution: PI3K Detection Buffer (contains 50 mM HEPES pH7.0 (HCl), 150 mM NaCl, 2.3 mM sodium cholate, 10 μM CHAPS, 240 mM potassium fluoride) containing 2 mM DTT (2× final concentration), 90 nM GRP-1 PH domain, 300 nM Streptavidin-APC and 24 nM Europium-anti-GST (6× final concentrations)
This is mixed left at room temperature (protected from light).
STOP solution: PI3K STOP Buffer (contains 50 mM HEPES pH7.0 (HCl), 150 mM NaCl, 2.3 mM sodium cholate, 10 μM CHAPS, 150 mM EDTA).
Detection solution is diluted 1:1 with STOP solution and added to all wells (3 ul/well). Plates are covered and incubated on the bench for 45-60 minutes. Plates are read on a PerkinElmer Envision, measuring TR-FRET between the complex formed between the GST-tagged PH domain and biotinylated PIP3 which both recruit fluorophores (Europium-labelled anti-GST & Strep-APC respectively). […], this complex is disrupted by the competitive action of non-biotinylated PIP3 (formed in the assay by the phosphorylation of PIP2 by the kinase & ATP). From this, the ratio of acceptor/donor was calculated (Aex=317 nm, Aem donor=615 nm, em acceptor=665 nm) and used for data analysis.

PI3K-Delta, sequence (O00329 whole entry): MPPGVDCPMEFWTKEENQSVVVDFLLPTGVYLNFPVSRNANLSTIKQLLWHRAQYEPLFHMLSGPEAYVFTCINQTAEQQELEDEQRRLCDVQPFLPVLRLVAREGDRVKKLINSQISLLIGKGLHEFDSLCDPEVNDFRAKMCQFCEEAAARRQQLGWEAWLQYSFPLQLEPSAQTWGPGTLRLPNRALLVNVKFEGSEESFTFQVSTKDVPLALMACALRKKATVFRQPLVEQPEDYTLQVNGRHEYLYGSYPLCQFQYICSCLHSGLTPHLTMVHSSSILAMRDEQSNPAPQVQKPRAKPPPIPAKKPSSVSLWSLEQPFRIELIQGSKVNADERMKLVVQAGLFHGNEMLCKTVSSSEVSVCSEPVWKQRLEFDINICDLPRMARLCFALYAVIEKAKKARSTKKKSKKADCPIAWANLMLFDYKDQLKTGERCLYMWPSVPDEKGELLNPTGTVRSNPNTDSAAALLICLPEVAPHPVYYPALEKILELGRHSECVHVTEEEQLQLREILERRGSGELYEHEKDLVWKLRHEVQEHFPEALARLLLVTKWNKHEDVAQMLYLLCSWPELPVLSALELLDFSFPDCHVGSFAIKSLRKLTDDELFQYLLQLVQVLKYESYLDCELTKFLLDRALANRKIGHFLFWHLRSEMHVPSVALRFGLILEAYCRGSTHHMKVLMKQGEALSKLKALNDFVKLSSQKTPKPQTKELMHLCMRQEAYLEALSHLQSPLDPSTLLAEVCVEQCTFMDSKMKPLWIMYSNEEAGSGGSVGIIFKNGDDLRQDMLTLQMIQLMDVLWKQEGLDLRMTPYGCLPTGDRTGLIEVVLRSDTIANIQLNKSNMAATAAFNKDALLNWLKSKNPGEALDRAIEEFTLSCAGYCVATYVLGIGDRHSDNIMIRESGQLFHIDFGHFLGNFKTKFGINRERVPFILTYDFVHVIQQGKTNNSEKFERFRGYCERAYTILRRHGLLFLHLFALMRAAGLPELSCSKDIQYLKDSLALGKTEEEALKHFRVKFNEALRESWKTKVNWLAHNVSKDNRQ
PI3K-Delta, sequence (P27986 whole entry partner): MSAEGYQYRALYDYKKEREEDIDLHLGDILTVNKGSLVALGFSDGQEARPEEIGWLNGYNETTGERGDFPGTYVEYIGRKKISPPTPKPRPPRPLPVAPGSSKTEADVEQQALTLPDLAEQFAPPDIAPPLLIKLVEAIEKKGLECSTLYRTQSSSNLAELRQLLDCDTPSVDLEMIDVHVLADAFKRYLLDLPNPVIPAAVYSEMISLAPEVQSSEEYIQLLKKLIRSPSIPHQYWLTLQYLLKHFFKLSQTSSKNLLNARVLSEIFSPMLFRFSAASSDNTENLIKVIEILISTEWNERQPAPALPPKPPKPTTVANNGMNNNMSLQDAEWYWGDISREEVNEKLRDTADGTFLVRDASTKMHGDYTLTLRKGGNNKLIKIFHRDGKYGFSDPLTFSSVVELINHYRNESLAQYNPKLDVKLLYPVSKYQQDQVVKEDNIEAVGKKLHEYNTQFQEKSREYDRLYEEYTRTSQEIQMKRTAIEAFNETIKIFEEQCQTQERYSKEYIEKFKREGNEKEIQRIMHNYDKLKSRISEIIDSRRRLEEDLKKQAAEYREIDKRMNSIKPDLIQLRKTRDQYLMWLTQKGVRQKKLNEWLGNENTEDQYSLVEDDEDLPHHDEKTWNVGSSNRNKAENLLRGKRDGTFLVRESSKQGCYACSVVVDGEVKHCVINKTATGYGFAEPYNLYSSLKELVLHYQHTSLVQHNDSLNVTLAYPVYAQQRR

IC50 | SMILES
1 nM and ≤ 3.16 nM | COc1ncc(N2CCOCC2)cc1S(=O)(=O)Nc1ccnc(-c2ccc(CN3CCN(C(C)C)CC3)cc2F)c1 [Example 1, N-(2-(2-Fluoro-4-((4-isopropylpiperazin-1-yl)methyl)phenyl)pyridin-4-yl)-2-methoxy-5-morpholinopyridine-3-sulfonamide]
≤ 3.16 nM | COc1ncc(N2CCOCC2)cc1S(=O)(=O)Nc1ccnc(-c2ccc(CN3CCN(C(C)(C)C)CC3)cc2F)c1 [Example 2, N-(2-(4-((4-(tert-Butyl)piperazin-1-yl)methyl)-2-fluorophenyl)pyridin-4-yl)-2-methoxy-5-morpholinopyridine-3-sulfonamide]
≤ 3.16 nM | COc1ncc(N2CCOCC2)cc1S(=O)(=O)Nc1ccnc(-c2ccc(CN3CCN(C(C)C)CC3)cc2)c1 [Example 3, N-(2-(4-((4-Isopropylpiperazin-1-yl)methyl)phenyl)pyridin-4-yl)-2-methoxy-5-morpholinopyridine-3-sulfonamide]
≤ 3.16 nM | COc1ncc(N2CCOCC2)cc1S(=O)(=O)Nc1ccnc(-c2ccc(CN3CCN(C(C)C)CC3)c(F)c2)c1 [Example 5, N-(2-(3-Fluoro-4-((4-isopropylpiperazin-1-yl)methyl)phenyl)pyridin-4-yl)-2-methoxy-5-morpholinopyridine-3-sulfonamide]
≤ 3.16 nM | COc1ncc(N2CCOCC2)cc1S(=O)(=O)Nc1ccnc(-c2ccc(CN3CCN(C(C)(C)C)CC3)cc2)c1 [Example 6, N-(2-(4-((4-(tert-Butyl)piperazin-1-yl)methyl)phenyl)pyridin-4-yl)-2-methoxy-5-morpholinopyridine-3-sulfonamide]
≤ 3.16 nM | COc1ncc(N2CCOCC2)cc1S(=O)(=O)Nc1ccnc(-c2ccc(CN3CCN(C4CCC4)CC3)cc2)c1 [Example 7]
≤ 3.16 nM | COc1ncc(N2CCOCC2)cc1S(=O)(=O)Nc1ccnc(-c2c(F)cc(CN3CCN(C(C)C)CC3)cc2F)c1 [Example 8, N-(2-(2,6-Difluoro-4-((4-isopropylpiperazin-1-yl)methyl)phenyl)pyridin-4-yl)-2-methoxy-5-morpholinopyridine-3-sulfonamide]
≤ 3.16 nM | CCC(C)N1CCN(Cc2ccc(-c3cc(NS(=O)(=O)c4cc(N5CCOCC5)cnc4OC)ccn3)cc2)CC1 (centres unmarked) [Example 9]
≤ 3.16 nM | COc1ncc(N2CCOCC2)cc1S(=O)(=O)Nc1ccnc(-c2cc(F)c(CN3CCN(C(C)C)CC3)c(F)c2)c1 [Example 12, N-(2-(3,5-Difluoro-4-((4-isopropylpiperazin-1-yl)methyl)phenyl)pyridin-4-yl)-2-methoxy-5-morpholinopyridine-3-sulfonamide]
≤ 3.16 nM | COc1ncc(N2CCOCC2)cc1S(=O)(=O)Nc1ccnc(-c2ccc(CN3CCN(C4COC4)CC3)cc2)c1 [Example 13]
≤ 3.16 nM | COc1ncc(N2CCOCC2)cc1S(=O)(=O)Nc1ccnc(-c2ccc(CN3CCN(C(C)C)CC3)c(F)c2F)c1 [Example 14, N-(2-(2,3-Difluoro-4-((4-isopropylpiperazin-1-yl)methyl)phenyl)pyridin-4-yl)-2-methoxy-5-morpholinopyridine-3-sulfonamide]
≤ 3.16 nM | COc1ncc(N2CCOCC2)cc1S(=O)(=O)Nc1ccnc(-c2ccc(CN3CCN(C4COC4)CC3)cc2F)c1 [Example 15, N-(2-(2-Fluoro-4-((4-(oxetan-3-yl)piperazin-1-yl)methyl)phenyl)pyridin-4-yl)-2-methoxy-5-morpholinopyridine-3-sulfonamide, 3 formic acid salt]
≤ 3.16 nM | COc1ncc(N2CCOCC2)cc1S(=O)(=O)Nc1ccnc(-c2ccc(CN3CCN(C4CCC4)CC3)cc2F)c1 [Example 16, N-(2-(4-((4-Cyclobutylpiperazin-1-yl)methyl)-2-fluorophenyppyridin-4-yl)-2-methoxy-5-morpholinopyridine-3-sulfonamide, 2.5 formic acid salt]
≤ 3.16 nM | COc1ncc(N2CCOCC2)cc1S(=O)(=O)Nc1ccnc(-c2cc(F)c(CN3CCN(C(C)C)CC3)cc2F)c1 [Example 17, N-(2-(2,5-Difluoro-4-((4-isopropylpiperazin-1-yl)methyl)phenyl)pyridin-4-yl)-2-methoxy-5-morpholinopyridine-3-sulfonamide]
